From US9951064B2, “Azaindazole compounds as inhibitors of T790M containing EGFR mutants” (Genentech, Inc., priority 2013, dated 2018)

Columns and labels:
[1] = test system: H1975 (EGFR T790M/L858R) cell proliferation; test: H1975 proliferation assay (Cell Titer-Glo); assay type: cell-based; conditions: Homo sapiens, NCI-H1975, 72 h, NCI-H1975 cells, 72 hour incubation, read-out: H1975 antiproliferative EC50
Procedure: H1975 Proliferation Assays
All cell culture reagents were purchased from Invitrogen/Gibco. Cells are cultured at 37° C. at 5% CO2 and split as recommended by ATCC.

[2] = target: T1, EGFR T790M L858R (Homo sapiens, UniProt P00533, L858R/T790M); test: EGFR T790M L858R biochemical assay (Caliper mobility shift); conditions: 5 μM ATP; apparent Ki (Morrison fit) converted by Cheng-Prusoff, Km of ATP 1.3 μM
T1 construct: purchased Life Technologies PV4879
T1 sequence (P00533 25-1210 T790M/L858R): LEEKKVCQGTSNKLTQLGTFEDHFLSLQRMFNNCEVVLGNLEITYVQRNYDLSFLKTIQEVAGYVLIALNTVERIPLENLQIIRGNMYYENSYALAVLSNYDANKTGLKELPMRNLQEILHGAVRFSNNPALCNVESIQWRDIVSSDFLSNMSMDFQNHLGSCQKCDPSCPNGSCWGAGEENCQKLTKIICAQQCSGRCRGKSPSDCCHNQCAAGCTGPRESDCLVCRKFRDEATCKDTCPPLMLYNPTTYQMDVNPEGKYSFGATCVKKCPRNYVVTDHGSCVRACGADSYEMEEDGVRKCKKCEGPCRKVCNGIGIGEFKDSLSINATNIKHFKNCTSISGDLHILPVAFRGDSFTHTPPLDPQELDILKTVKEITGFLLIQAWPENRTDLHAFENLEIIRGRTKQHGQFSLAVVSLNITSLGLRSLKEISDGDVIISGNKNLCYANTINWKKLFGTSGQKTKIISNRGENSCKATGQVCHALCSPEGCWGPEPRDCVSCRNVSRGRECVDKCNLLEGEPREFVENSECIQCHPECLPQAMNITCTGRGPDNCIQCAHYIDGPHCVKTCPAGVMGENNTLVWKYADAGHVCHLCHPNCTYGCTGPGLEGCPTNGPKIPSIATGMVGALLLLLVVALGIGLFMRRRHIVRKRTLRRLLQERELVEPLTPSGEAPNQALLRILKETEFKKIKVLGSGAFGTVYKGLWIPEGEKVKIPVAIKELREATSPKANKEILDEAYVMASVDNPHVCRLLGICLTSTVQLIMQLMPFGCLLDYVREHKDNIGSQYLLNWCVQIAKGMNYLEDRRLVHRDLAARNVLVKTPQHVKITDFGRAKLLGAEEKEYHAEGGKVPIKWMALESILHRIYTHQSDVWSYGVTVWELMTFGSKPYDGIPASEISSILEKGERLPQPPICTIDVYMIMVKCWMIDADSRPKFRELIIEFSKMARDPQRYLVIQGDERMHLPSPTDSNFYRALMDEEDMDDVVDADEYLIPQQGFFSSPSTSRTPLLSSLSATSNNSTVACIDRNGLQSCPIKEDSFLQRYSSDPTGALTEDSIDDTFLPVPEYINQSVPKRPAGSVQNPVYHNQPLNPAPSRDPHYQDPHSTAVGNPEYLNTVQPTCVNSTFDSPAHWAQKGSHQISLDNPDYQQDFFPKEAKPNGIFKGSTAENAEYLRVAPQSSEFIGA
Outline: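 Caliper mobility-shift read-out, electrophoretic separation of substrate from product, after a 30-minute kinase reaction at 22 °C. EDTA at 80 mM terminates each reaction.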

[3] = target: T2, phosphor-EGFR in H1975(L585R/T790M) mutant EGFR expressing cells (Homo sapiens, UniProt P00533, L858R/T790M); test: H1975 pEGFR MSD cellular assay; assay type: cell-based; conditions: NCI-H1975 cells, serum starved, 1 hour compound incubation, pEGFR Tyr1068 MSD; read-out: HI975 pEGFR EC50
T2 construct: host or cells: NCI-H1975
T2 sequence (P00533 25-1210 T790M/L858R): as above
Outline: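 Phospho-EGFR read by MSD electrochemiluminescence: capture with anti-pEGFR antibody (overnight, 4° C), detection with SULFO-TAG anti-total EGFR (1 hour, room temperature). Before lysis, H1975 cells starved of serum overnight got compound for 1 hour at 37° C, 0.5% DMSO final. EC50 via four-parameter logistic regression of percent inhibition.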

[4] = target: T3, EGFR del746-750 T790M (Homo sapiens, UniProt P00533, DEL746-750/T790M); test: EGFR del746-750 T790M biochemical assay (Caliper mobility shift); conditions: 5 μM ATP; apparent Ki (Morrison fit) converted by Cheng-Prusoff, Km of ATP 2.1 μM; read-out: EGFR(T790M/d746-750) Ki
T3 construct: purchased Carna Biosciences 08-528
T3 sequence (P00533 with tags, fused parts or gaps DEL746-750/T790M limits assumed): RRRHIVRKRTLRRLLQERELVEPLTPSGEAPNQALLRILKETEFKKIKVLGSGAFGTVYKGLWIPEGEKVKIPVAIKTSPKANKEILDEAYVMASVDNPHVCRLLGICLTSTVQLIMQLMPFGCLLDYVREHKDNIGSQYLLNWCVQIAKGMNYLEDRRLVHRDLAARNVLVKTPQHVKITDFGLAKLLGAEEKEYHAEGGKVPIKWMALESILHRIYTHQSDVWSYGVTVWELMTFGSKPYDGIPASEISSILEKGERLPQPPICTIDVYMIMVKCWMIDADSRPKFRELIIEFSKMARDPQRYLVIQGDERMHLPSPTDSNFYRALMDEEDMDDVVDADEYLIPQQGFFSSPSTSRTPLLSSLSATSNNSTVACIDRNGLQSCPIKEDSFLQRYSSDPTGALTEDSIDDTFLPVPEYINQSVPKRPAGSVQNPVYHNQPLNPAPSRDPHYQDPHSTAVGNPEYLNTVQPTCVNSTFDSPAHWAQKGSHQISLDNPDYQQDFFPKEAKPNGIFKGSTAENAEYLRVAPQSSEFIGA
Outline: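 Caliper mobility-shift read-out, with product electrophoretically resolved from substrate and measured. Reactions were quenched with 80 mM EDTA after 30 min at 22 °C.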

CC[C@H](C)n1nc(N2CC3(COC3)C2)c2cnc(Nc3ccnc(N4CC[C@](C)(O)[C@H](F)C4)n3)cc21 (relative stereo) [Example 65, (3R*,4S*)-1-{4-[1-((S)-sec-Butyl)-3-(2-oxa-6-azaspiro[3.3]hept-6-yl)-1H-pyrazolo[4,3-c]pyridin-6-ylamino]pyrimidin-2-yl}-3-fluoro-4-methylpiperidin-4-ol]
EC50 [1]: 874 nM | Ki [2]: 3.6 nM | EC50 [3]: 126 nM | Ki [4]: 9.6 nM

CC[C@H](C)n1nc(N2CC[C@@H](O)C2)c2cnc(Nc3ccnc(N4CC[C@](C)(O)[C@H](F)C4)n3)cc21 (relative stereo) [Example 69, (3R*,4S*)-1-{4-[1-((S)-sec-Butyl)-3-((R)-3-hydroxypyrrolidin-1-yl)-1H-pyrazolo[4,3-c]pyridin-6-ylamino]pyrimidin-2-yl}-3-fluoro-4-methylpiperidin-4-ol]
EC50 [1]: 521 nM | Ki [2]: 1.7 nM | EC50 [3]: 67.9 nM | Ki [4]: 2.9 nM

CC[C@H](C)n1nc(N2CC[C@H](O)C2)c2cnc(Nc3ccnc(N4CC[C@](C)(O)[C@H](F)C4)n3)cc21 (relative stereo) [Example 70, (3R*,4S*)-1-{4-[1-((S)-sec-Butyl)-3-((S)-3-hydroxypyrrolidin-1-yl)-1H-pyrazolo[4,3-c]pyridin-6-ylamino]pyrimidin-2-yl}-3-fluoro-4-methylpiperidin-4-ol]
EC50 [1]: 371 nM | Ki [2]: 2 nM | EC50 [3]: 83 nM | Ki [4]: 2.3 nM

CC(n1nc(N2CC[C@@H](O)C2)c2cnc(Nc3ccnc(N4CC[C@](C)(O)[C@H](F)C4)n3)cc21)C(F)(F)F (relative stereo) [Example 79, (3RS,4SR)-3-Fluoro-1-(4-(3-((R)-3-hydroxypyrrolidin-1-yl)-1-((S*)-1,1,1-trifluoropropan-2-yl)-1H-pyrazolo[4,3-c]pyridin-6-ylamino)pyrimidin-2-yl)-4-methylpiperidin-4-ol]
EC50 [1]: 906 nM | Ki [2]: 3.3 nM | EC50 [3]: 165 nM | Ki [4]: 5.9 nM

CC(C)n1nc(N2CCC(C)(O)C2)c2cnc(Nc3ccnc(N4CC[C@@H](O)[C@@H](F)C4)n3)cc21 (relative stereo) [Example 104, (3S*,4R*)-3-fluoro-1-(4-((3-(3-hydroxy-3-methylpyrrolidin-1-yl)-1-isopropyl-1H-pyrazolo[4,3-c]pyridin-6-yl)amino)pyrimidin-2-yl)piperidin-4-ol]
EC50 [1]: 404 nM | Ki [2]: 1.6 nM | EC50 [3]: 71.6 nM | Ki [4]: 1.9 nM

CC1CN(c2nn(C(C)C)c3cc(Nc4ccnc(N5CC[C@H](O)[C@H](F)C5)n4)ncc23)C(=O)N1 (relative stereo) [Example 127, 1-(6-(2-(cis-3-Fluoro-4-hydroxypiperidin-1-yl)pyrimidin-4-ylamino)-1-isopropyl-1H-pyrazolo[4,3-c]pyridin-3-yl)-4-methylimidazolidin-2-one]
EC50 [1]: 1380 nM | Ki [2]: 2.5 nM | EC50 [3]: 466 nM | Ki [4]: 6 nM

CC1CNC(=O)N1c1nn(C(C)C)c2cc(Nc3ccnc(N4CC[C@H](O)[C@H](F)C4)n3)ncc12 (relative stereo) [Example 128, 1-(6-(2-(cis-3-Fluoro-4-hydroxypiperidin-1-yl)pyrimidin-4-ylamino)-1-isopropyl-1H-pyrazolo[4,3-c]pyridin-3-yl)-5-methylimidazolidin-2-one]
EC50 [1]: 2040 nM | Ki [2]: 6.2 nM | EC50 [3]: 919 nM | Ki [4]: 15.5 nM

CC(C)n1nc(N2C[C@@H](O)[C@H](F)C2)c2cnc(Nc3ccnc(N4CC[C@H](O)[C@H](F)C4)n3)cc21 (relative stereo) [Example 131, cis-3-Fluoro-1-(4-(3-(trans-3-fluoro-4-hydroxypyrrolidin-1-yl)-1-isopropyl-1H-pyrazolo[4,3-c]pyridin-6-ylamino)pyrimidin-2-yl)piperidin-4-ol]
EC50 [1]: 1480 nM | Ki [2]: 0.8 nM | EC50 [3]: 129 nM | Ki [4]: 1.2 nM

C[C@H](n1nc(N2CC[C@@H](O)C2)c2cnc(Nc3ccnc(N4CC[C@H](O)[C@H](F)C4)n3)cc21)C(F)(F)F (relative stereo) [Example 141, (±)-cis-3-Fluoro-1-(4-(3-((R)-3-hydroxypyrrolidin-1-yl)-1-((S*)-1,1,1-trifluoropropan-2-yl)-1H-pyrazolo[4,3-c]pyridin-6-ylamino)pyrimidin-2-yl)piperidin-4-ol]
EC50 [1]: 769 nM | Ki [2]: 1.6 nM | EC50 [3]: 89.2 nM | Ki [4]: 2.7 nM

C[C@@H](n1nc(N2CC[C@@H](O)C2)c2cnc(Nc3ccnc(N4CC[C@H](O)[C@H](F)C4)n3)cc21)C(F)(F)F (relative stereo) [Example 142, (±)-cis-3-Fluoro-1-(4-(3-((R)-3-hydroxypyrrolidin-1-yl)-1-((R*)-1,1,1-trifluoropropan-2-yl)-1H-pyrazolo[4,3-c]pyridin-6-ylamino)pyrimidin-2-yl)piperidin-4-ol]
EC50 [1]: 1280 nM | Ki [2]: 1.6 nM | EC50 [3]: 110 nM | Ki [4]: 3.1 nM

CCC(C)n1nc(N2C[C@@H](F)[C@@H](N)C2)c2cnc(Nc3ccnc(N4CCC(C)(O)CC4)n3)cc21 (relative stereo) [Example 177, 1-(4-(3-(cis-3-Amino-4-fluoropyrrolidin-1-yl)-1-sec-butyl-1H-pyrazolo[4,3-c]pyridin-6-ylamino)pyrimidin-2-yl)-4-methylpiperidin-4-ol]
EC50 [1]: 489 nM | Ki [2]: 1.7 nM | EC50 [3]: 87.2 nM | Ki [4]: 2.1 nM

CCC(C)n1nc(N2C[C@H](O)[C@@H](F)C2)c2cnc(Nc3ccnc(N4CCC(C)(O)CC4)n3)cc21 (relative stereo) [Example 178, 1-(4-(1-sec-Butyl-3-(trans-3-fluoro-4-hydroxypyrrolidin-1-yl)-1H-pyrazolo[4,3-c]pyridin-6-ylamino)pyrimidin-2-yl)-4-methylpiperidin-4-ol]
EC50 [1]: 483 nM | Ki [2]: 1.4 nM | EC50 [3]: 83.2 nM | Ki [4]: 4.7 nM

CC(C#N)Nc1nn(C(C)C)c2cc(Nc3ccnc(N4CC[C@H](O)[C@H](F)C4)n3)ncc12 (relative stereo) [Example 179, 2-(6-(2-(cis-3-Fluoro-4-hydroxypiperidin-1-yl)pyrimidin-4-ylamino)-1-isopropyl-1H-pyrazolo[4,3-c]pyridin-3-ylamino)propanenitrile]
EC50 [1]: 1480 nM | Ki [2]: 5.6 nM | EC50 [3]: 746 nM | Ki [4]: 15.1 nM

CC[C@H](C)n1nc(N2CC(C(C)(C)O)C2)c2cnc(Nc3ccnc(N4CC[C@@H](O)[C@@H](F)C4)n3)cc21 (relative stereo) [Example 194, (3S,4R)-1-(4-((1-((S*)-sec-Butyl)-3-(3-(2-hydroxypropan-2-yl)azetidin-1-yl)-1H-pyrazolo[4,3-c]pyridin-6-yl)amino)pyrimidin-2-yl)-3-fluoropiperidin-4-ol]
EC50 [1]: 429 nM | Ki [2]: 1.5 nM | EC50 [3]: 171 nM | Ki [4]: 3.5 nM

CC[C@@H](C)n1nc(N2CC[C@@H](O)C2)c2cnc(Nc3ccnc(N4CCC5(CC4)CNC(=O)CO5)n3)cc21 (relative stereo) [Example 208, 9-(4-((1-((R*)-sec-Butyl)-3-((R)-3-hydroxypyrrolidin-1-yl)-1H-pyrazolo[4,3-c]pyridin-6-yl)amino)pyrimidin-2-yl)-1-oxa-4,9-diazaspiro[5.5]undecan-3-one]
EC50 [1]: 9130 nM | Ki [2]: 3.8 nM | EC50 [3]: 1200 nM | Ki [4]: 10.1 nM

CC[C@@H](C)n1nc(N2CC[C@@H](O)C2)c2cnc(Nc3ccnc(N4CC[C@](C)(C(N)=O)C4)n3)cc21 (relative stereo) [Example 210, (S*)-1-(4-((1-((R*)-sec-Butyl)-3-((R)-3-hydroxypyrrolidin-1-yl)-1H-pyrazolo[4,3-c]pyridin-6-yl)amino)pyrimidin-2-yl)-3-methylpyrrolidine-3-carboxamide]
EC50 [1]: 4050 nM | Ki [2]: 3.1 nM | EC50 [3]: 1850 nM | Ki [4]: 2.1 nM

CC[C@H](C)n1nc(N2CC3(COC3)C2)c2cnc(Nc3ccnc(N4CC[C@@](C)(O)[C@@H](F)C4)n3)cc21 (single isomer, unassigned) [Example 66, (3R*,4S*)-1-{4-[1-((S)-sec-Butyl)-3-(2-oxa-6-azaspiro[3.3]hept-6-yl)-1H-pyrazolo[4,3-c]pyridin-6-ylamino]pyrimidin-2-yl}-3-fluoro-4-methylpiperidin-4-ol]
EC50 [1]: 631 nM | Ki [2]: 2.1 nM | EC50 [3]: 63.8 nM | Ki [4]: 4.6 nM

CC[C@@H](C)n1nc(N2CC3(COC3)C2)c2cnc(Nc3ccnc(N4CC[C@](C)(O)[C@H](F)C4)n3)cc21 (single isomer, unassigned) [Example 67, (3R*,4S*)-1-{4-[1-((R)-sec-Butyl)-3-(2-oxa-6-azaspiro[3.3]hept-6-yl)-1H-pyrazolo[4,3-c]pyridin-6-ylamino]pyrimidin-2-yl}-3-fluoro-4-methylpiperidin-4-ol]
EC50 [1]: 1160 nM | Ki [2]: 3.9 nM | EC50 [3]: 257 nM | Ki [4]: 11.1 nM
